The results in this text go back to ChEMBL document CHEMBL5465560, “Selectivity Literature for EUbOPEN Chemogenomic Library” (2024).

The target in assay [1] is Dual specificity protein kinase CLK1 (Homo sapiens, UniProt P49759). Kind of assay: Selectivity interaction (KinomeScan (DiscoverX)) EUB0000607a CLK1. As to conditions: at 10 µM.
The target of assay [2] is T1, MAP kinase-activated protein kinase 5 (Homo sapiens) (UniProt Q8IW41).
T1 sequence (whole entry): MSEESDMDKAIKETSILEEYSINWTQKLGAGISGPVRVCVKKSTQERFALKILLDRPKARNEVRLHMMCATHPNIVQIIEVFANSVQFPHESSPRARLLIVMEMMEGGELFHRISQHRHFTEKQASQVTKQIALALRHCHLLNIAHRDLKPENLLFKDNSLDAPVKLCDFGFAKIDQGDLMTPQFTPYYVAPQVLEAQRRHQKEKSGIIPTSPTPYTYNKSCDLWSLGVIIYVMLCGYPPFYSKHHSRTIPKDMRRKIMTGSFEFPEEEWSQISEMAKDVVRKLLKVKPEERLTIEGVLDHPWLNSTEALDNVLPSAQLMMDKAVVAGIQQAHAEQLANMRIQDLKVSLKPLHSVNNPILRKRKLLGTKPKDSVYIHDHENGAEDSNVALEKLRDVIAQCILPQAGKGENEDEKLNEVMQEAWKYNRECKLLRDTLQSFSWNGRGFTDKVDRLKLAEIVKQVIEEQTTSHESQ
Kind of assay: Selectivity interaction (KinaseProfiler screening (Millipore)) EUB0000601a MAPKAPK5. As to conditions: at 3 µM.

The target in assay [3] is T2, Serine/threonine-protein kinase Nek9 (Homo sapiens) (UniProt Q8TD19).
T2 sequence (whole entry): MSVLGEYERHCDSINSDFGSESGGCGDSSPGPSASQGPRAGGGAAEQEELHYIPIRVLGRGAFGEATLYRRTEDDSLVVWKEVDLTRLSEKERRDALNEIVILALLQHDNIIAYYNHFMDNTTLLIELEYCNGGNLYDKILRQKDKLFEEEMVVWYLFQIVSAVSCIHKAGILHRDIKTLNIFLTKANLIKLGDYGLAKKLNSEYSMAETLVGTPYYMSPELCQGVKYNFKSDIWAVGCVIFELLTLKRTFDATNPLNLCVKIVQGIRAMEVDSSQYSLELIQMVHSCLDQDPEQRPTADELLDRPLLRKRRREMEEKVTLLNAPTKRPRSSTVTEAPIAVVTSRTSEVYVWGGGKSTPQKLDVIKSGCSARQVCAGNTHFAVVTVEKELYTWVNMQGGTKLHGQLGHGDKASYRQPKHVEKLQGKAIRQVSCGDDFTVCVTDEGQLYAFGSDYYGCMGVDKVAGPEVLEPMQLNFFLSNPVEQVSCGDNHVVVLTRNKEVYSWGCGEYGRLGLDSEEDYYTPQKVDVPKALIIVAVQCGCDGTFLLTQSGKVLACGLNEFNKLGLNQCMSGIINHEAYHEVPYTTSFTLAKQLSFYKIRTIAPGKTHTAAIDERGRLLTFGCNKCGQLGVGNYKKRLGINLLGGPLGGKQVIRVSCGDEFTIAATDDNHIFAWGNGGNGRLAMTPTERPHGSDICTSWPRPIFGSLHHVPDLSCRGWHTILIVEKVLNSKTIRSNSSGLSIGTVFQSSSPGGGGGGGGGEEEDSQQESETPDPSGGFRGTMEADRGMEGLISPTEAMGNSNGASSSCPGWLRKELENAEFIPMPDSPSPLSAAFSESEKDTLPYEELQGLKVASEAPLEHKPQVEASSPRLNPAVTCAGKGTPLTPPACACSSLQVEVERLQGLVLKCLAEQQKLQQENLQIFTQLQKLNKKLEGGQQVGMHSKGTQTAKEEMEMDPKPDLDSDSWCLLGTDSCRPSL
Kind of assay: Selectivity interaction (ActivX KiNativ screen (ex vivo kinase selectivity in human PBMCs)) EUB0001619a NEK9. As to conditions: PBMC, at 1 µM. It is filed as cell-based.

Assay [4] has as its target Glycogen synthase kinase-3 alpha (Homo sapiens, UniProt P49840). As to the kind of experiment: Selectivity interaction (Kinase counterscreening (biochemical assay)) EUB0000604a GSK3A. A general note: A counterscreen serves to expose hits that act by an unwanted route or on another target.
Assay [5] addresses T3, Atypical kinase COQ8B, mitochondrial (Homo sapiens) (UniProt Q96D53).
T3 sequence (whole entry): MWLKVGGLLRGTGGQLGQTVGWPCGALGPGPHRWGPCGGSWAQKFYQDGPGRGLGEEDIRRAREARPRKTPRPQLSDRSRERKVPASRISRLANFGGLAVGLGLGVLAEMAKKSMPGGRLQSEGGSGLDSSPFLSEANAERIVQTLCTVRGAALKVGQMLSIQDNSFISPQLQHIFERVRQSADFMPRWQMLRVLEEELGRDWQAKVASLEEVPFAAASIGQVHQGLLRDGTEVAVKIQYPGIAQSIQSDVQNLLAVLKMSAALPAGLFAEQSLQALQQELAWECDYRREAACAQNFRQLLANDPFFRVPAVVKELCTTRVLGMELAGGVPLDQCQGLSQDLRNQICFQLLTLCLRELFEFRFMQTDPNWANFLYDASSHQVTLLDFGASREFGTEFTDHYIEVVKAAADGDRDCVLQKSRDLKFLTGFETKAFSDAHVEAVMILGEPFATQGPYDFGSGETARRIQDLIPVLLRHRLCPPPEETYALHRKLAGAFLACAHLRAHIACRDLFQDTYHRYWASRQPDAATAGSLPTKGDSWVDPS
As to the kind of experiment: Selectivity interaction (KinomeScan (DiscoverX)) EUB0000092b ADCK4. As to conditions: at 10 µM.

For assay [6], the target named is Serine/threonine-protein kinase PAK 1 (Homo sapiens) (UniProt Q13153). As to the kind of experiment: Selectivity interaction (Kinase panel (DSF assay)) EUB0001559a PAK1.
Serine/threonine-protein kinase PAK 1 (Homo sapiens), sequence (Q13153 whole entry): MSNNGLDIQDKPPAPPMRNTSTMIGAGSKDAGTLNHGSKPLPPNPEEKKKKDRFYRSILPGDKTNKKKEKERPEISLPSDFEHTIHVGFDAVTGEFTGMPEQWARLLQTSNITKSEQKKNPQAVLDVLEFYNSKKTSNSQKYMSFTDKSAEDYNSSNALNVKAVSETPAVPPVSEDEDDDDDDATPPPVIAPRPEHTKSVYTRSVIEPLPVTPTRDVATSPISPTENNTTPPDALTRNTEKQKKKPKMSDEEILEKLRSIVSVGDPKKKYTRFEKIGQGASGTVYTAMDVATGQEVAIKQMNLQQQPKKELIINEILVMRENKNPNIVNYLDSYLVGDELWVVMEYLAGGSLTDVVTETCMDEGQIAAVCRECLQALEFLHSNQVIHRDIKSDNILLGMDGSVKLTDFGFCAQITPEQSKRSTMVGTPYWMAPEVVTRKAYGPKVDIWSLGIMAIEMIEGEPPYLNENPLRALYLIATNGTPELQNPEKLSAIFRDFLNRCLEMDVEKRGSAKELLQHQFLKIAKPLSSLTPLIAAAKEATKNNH
In assay [7] the target is Serine/threonine-protein kinase SIK2 (Homo sapiens) (UniProt Q9H0K1). Kind of assay: Selectivity interaction (KinomeScan (DiscoverX)) EUB0000045b SIK2.
Serine/threonine-protein kinase SIK2 (Homo sapiens), sequence (Q9H0K1 whole entry, looked up): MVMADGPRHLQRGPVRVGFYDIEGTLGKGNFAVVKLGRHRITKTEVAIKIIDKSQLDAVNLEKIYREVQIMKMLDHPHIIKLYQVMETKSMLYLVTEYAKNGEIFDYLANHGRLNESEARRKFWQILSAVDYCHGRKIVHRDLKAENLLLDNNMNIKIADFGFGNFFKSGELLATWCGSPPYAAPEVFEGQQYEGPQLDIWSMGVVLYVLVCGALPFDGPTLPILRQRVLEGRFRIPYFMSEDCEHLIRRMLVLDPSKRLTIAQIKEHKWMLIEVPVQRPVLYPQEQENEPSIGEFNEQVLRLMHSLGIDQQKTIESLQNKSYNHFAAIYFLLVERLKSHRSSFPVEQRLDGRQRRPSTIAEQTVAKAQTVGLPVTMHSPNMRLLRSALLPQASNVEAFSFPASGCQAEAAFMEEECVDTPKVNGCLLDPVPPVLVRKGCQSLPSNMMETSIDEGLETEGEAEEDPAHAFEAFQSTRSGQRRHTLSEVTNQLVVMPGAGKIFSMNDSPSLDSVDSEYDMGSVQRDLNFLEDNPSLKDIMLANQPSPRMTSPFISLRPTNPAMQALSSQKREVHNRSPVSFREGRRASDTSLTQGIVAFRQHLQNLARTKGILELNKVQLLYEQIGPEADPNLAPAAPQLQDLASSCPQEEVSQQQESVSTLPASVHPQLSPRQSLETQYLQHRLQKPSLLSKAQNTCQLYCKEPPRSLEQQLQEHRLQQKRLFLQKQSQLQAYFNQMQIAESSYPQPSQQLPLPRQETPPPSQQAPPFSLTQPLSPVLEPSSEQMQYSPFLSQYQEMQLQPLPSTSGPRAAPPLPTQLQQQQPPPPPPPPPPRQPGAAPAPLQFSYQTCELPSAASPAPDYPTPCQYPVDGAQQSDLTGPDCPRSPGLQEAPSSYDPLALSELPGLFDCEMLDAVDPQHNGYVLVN

Glycogen synthase kinase-3 alpha, sequence (P49840 whole entry): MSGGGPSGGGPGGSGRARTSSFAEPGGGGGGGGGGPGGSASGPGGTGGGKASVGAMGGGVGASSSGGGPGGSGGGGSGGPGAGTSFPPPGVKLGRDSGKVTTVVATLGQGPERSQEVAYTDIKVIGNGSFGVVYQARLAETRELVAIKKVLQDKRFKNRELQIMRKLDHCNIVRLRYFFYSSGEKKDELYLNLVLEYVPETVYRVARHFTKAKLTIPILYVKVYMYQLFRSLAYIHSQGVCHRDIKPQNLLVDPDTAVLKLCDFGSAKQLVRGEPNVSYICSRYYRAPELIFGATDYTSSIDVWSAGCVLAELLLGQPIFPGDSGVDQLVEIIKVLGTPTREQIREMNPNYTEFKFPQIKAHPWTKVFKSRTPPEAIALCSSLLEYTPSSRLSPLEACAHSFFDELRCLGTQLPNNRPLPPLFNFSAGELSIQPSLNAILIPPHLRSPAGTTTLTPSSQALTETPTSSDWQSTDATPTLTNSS
Dual specificity protein kinase CLK1, sequence (P49759 whole entry, looked up): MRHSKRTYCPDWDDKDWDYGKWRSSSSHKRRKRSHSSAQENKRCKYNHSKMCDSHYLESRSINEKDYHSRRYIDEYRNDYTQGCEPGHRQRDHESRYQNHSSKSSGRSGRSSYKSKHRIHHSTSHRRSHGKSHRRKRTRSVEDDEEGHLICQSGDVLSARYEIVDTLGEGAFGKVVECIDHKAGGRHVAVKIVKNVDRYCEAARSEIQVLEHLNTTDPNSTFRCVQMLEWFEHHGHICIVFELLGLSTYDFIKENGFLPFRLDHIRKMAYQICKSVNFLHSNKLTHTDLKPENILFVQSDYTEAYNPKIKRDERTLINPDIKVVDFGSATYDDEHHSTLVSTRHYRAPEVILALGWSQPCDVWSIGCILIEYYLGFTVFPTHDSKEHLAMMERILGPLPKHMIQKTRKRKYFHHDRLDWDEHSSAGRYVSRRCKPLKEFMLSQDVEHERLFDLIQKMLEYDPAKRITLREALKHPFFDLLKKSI

`CNC(=O)Nc1ccc(-c2nc(N3CC4CCC(C3)O4)c3cnn(C4CCC5(CC4)OCCO5)c3n2)cc1` displayed a % of control in assay [1] of 29%.
For `CCc1cc(Nc2nccc(-c3c(-c4ccc(OC)c(C(=O)Nc5c(F)cccc5F)c4)nc4ccccn34)n2)c(OC)cc1N1CCC(N2CCN(S(C)(=O)=O)CC2)CC1`, the % of inhibition in assay [2] came out at 35%.
For the compound `N#Cc1cccc(-c2c[nH]c3ncnc(N4CCOCC4)c23)c1`, in assay [3], the % of inhibition is -16%.
As usually defined, the Ki is the dissociation constant of the complex between target and ligand, obtained from inhibition or displacement. A lower Ki goes with a stronger hold on the target. The compound `Cc1cnc(Nc2ccc(F)cc2Cl)nc1-c1c[nH]c(C(=O)N[C@H](CO)c2cccc(Cl)c2)c1` yielded an inhibition constant Ki in assay [4] of 400 nM.
Take `CCC(=O)N1CCN(c2ccc(-n3c(=O)ccc4cnc5ccc(-c6cnc7ccccc7c6)cc5c43)cc2C(F)(F)F)CC1`: in assay [5], the % of control worked out at 15%.
`CN(C(=O)c1cnn2cccnc12)c1cc2c(cc1N1CCOCC1)C(=O)N(C[C@@H](F)C(C)(C)O)C2`: in assay [6], the dTM was -0.1 K.
For `C=CC(=O)Nc1cc(-n2c(=O)ccc3cnc4ccc(-c5ccc(NS(C)(=O)=O)cc5)cc4c32)ccc1C`, the % of control in assay [7] (at 1 µM) and in assay [7] (at 10 µM) was 100% in each case.
